Experiment [1] deals with EGFR (UniProt P00533). The note with it: concentration not given here.
Experiment [2] concerns the target EGFR (human) (UniProt P00533). The note with it: for inhibition: mda-mb-468, concentration not given here; for IC50: mda-mb-468.

Some results are limits rather than exact numbers.

A word on the inhibition: it is the drop in the measured response relative to a control, in per cent. Low readings indicate little suppression, high ones strong suppression. One may read the IC50 as the midpoint of a concentration-inhibition curve. Lower therefore signals greater potency in that assay.

Chain of EGFR (human) (P00533 whole entry, looked up): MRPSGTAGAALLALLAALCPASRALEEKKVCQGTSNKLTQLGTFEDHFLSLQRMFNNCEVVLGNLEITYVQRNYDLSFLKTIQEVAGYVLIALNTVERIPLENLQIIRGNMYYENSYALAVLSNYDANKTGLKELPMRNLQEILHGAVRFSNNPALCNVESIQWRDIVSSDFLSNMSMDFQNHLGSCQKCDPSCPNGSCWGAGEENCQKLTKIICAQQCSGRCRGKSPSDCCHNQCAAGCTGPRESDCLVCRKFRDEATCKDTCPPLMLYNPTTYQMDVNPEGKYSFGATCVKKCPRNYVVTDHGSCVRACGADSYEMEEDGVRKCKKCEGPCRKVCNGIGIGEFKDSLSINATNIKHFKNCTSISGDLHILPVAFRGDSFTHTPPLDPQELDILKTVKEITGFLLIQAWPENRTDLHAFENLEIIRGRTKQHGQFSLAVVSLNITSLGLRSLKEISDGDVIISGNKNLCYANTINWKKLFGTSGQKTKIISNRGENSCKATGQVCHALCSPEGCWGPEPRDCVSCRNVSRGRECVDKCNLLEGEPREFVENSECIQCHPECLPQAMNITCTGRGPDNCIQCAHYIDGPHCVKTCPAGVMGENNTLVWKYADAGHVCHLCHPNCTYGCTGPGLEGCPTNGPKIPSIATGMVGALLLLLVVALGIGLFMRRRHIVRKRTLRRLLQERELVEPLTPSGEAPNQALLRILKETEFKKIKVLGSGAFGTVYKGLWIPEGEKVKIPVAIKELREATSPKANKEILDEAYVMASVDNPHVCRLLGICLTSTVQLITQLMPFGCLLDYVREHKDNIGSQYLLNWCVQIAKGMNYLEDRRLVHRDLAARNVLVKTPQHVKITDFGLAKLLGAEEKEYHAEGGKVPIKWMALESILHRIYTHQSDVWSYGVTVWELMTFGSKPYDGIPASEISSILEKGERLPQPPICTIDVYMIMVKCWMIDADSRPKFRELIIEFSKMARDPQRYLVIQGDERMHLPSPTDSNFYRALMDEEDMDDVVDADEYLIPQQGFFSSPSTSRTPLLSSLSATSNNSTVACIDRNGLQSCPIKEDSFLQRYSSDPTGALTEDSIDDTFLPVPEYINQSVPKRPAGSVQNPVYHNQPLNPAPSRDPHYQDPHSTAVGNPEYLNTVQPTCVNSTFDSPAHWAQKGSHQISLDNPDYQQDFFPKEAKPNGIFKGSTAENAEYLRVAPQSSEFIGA
Chain of EGFR (P00533 whole entry, looked up): as above

With `O=[N+]([O-])c1ccc(NCc2ccccc2)c2c(O)ncnc12`, the inhibition in experiment [1] turned out to be 5.2%; in experiment [2], 12.1%.
Take `CCOc1ccc([N+](=O)[O-])c2ncnc(O)c12`: the inhibition in experiment [1] amounted to 3.9%; in experiment [2], 32.3%.
In experiment [1], `O=[N+]([O-])c1ccc(Nc2ccc(OCc3ccccc3)cc2)c2c(O)ncnc12` displayed an inhibition of 21.1%. Besides, the IC50 in experiment [2] came to 4.2 µM.
As for `O=C(O)[C@H](Nc1ccc([N+](=O)[O-])c2ncnc(O)c12)c1ccccc1`, the inhibition in experiment [1] is 6.5%; in experiment [2], 29.2%.
Taken in the same sequence, the figures for `O=[N+]([O-])c1ccc(N2CCCC2)c2c(O)ncnc12` were 0% and 23.3%.
Taken in the same sequence, the figures for `O=[N+]([O-])c1ccc(N2CC=CC2)c2c(O)ncnc12` were 7.9% and 34.6%.
Taken in the same sequence, the figures for `O=[N+]([O-])c1ccc(Nc2ccc(Cl)cc2)c2c(O)ncnc12` were 18.3% and 28.6%.
On to `CSCC[C@@H](Nc1ccc([N+](=O)[O-])c2ncnc(O)c12)C(=O)O`, for which the results for the inhibition in experiment [1] and in experiment [2] were 5.6% and 19.9%, respectively.
`O=[N+]([O-])c1ccc(Nc2cccc(Cl)c2)c2c(O)ncnc12` displayed an inhibition in experiment [1] of 17.1%. For the same compound, in experiment [2], the 50% inhibitory concentration (IC50) is > 10 µM and the inhibition was determined as 32.5%.
Taken in the same sequence, the figures for `COc1ccc(Nc2ccc([N+](=O)[O-])c3ncnc(O)c23)cc1` were 12.2%, < 0.01 µM and 75.5%.
In the case of `COc1ccc([N+](=O)[O-])c2ncnc(O)c12`, the figures for the inhibition in experiment [1] and in experiment [2] were 0% and 35.8%, respectively.
Turning to `O=[N+]([O-])c1ccc(Nc2ccccc2)c2c(O)ncnc12`, the inhibition in experiment [1] worked out at 17.7%. The concentration for half-maximal inhibition (IC50) in experiment [2] stood at 0.48 µM.
Taken in the same sequence, the figures for `Nc1ccc(Nc2ccc([N+](=O)[O-])c3ncnc(O)c23)cc1` were 0% and 4 µM.
In the case of `COC(=O)C#Cc1ccc([N+](=O)[O-])cc1`, the inhibition in experiment [1] worked out at 28%.
Turning to `Cc1cccc(Nc2ccc([N+](=O)[O-])c3ncnc(O)c23)c1`, the inhibition was determined as 0% in experiment [1] and 15.2% in experiment [2].

The record behind these values is the Kinase Knowledgebase extract (Sharma et al. 2016).
